Source: patent US20100137387A1, “BETA-KETO-AMIDE DERIVATIVES USEFUL AS ION CHANNEL MODULATORS” (NeuroSearch A/S, priority 2007, published 2010)

How the values were obtained:
chloride channel = assay: In vitro human erythrocyte chloride conductance; format: cell-based; settings: suspensions of human erythrocytes; from Cl- netfluxes and membrane potentials; read-out: KD-value (chloride channel blocking activity, membrane Cl-conductance)
Description: In this example the chloride channel blocking activity of an acetamide derivative representative of the invention, i.e. Compound 3 (3-(3,5-Bis-trifluoromethyl-phenyl)-3-oxo-N-[3-(1H-tetrazol-5-yl)-4′-trifluoromethoxy-biphenyl-4-yl]-propionamide), has been determined.
All dose-response experiments were therefore performed by concomitant measurements of conductive netfluxes of Cl^− (Jcl) and membrane potentials (Vm) in suspensions of erythrocytes as described by Bennekou et al. (Bennekou P and Christophersen P: Flux ratio of Valinomycin-Mediated K^+ Fluxes across the Human Red Cell Membrane in the presence of the Protronophore CCCP; J. Membrane Biol. 1986 93 221-227).
The membrane Cl-conductances (GCl) were calculated according to Hodgkin et al. (Hodgkin A L and Huxley A F: The components of membrane conductance in the giant axon of Loligo; J. Physiol. Lond. 1952 116 449-472) using the following equation: […]
where F is the Faraday constant and ECl is the Nernst potential for the Cl-ion.

BK channels = biological target: T1, BK channels (Homo sapiens, UniProt Q12791); assay: BK channel activation, two-electrode voltage clamp in Xenopus laevis oocytes; format: cell-based; settings: BK channels heterologously expressed in Xenopus laevis oocytes, 0.01-31.6 μM compound
T1 construct: expressed in transfected cells; host or cells: Xenopus laevis oocytes
T1 sequence (Q12791 whole entry): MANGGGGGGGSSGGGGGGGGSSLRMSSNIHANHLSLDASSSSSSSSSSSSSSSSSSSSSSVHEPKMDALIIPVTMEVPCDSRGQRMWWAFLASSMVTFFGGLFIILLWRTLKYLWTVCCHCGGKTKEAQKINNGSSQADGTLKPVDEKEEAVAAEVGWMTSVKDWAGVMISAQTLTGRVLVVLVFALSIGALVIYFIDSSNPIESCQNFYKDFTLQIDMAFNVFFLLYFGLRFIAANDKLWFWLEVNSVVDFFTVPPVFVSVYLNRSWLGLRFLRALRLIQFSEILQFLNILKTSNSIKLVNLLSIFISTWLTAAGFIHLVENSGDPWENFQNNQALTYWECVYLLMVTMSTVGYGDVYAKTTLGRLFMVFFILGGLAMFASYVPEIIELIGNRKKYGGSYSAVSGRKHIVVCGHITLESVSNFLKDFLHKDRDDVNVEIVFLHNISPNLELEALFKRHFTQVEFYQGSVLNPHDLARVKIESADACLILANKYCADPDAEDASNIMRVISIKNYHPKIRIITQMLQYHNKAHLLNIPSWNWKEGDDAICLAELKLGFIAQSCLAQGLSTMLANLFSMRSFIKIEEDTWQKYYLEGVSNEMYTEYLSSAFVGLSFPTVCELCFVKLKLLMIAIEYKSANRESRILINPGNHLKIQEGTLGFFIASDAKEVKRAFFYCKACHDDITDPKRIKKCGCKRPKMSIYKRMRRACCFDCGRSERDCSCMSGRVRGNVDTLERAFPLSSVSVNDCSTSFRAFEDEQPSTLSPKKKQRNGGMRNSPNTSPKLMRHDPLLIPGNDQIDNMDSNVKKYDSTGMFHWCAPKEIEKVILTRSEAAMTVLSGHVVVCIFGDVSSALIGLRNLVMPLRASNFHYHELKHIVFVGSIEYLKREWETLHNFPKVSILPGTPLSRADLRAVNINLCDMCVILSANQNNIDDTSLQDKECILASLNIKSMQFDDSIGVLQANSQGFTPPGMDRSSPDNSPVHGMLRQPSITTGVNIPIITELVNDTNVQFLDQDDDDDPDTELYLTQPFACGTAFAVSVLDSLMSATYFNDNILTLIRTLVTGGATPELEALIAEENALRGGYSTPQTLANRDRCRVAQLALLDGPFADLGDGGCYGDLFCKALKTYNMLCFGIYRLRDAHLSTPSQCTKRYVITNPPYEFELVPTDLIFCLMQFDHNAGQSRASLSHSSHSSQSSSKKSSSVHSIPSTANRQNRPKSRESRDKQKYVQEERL
Description: In this example the BK channel opening activity of Compound 4 (i.e. N-[5-Chloro-2-(1H-tetrazol-5-yl)-phenyl]-3-(4-chloro-3-trifluoromethyl-phenyl)-3-oxo-propionamide) is determined using BK channels heterologously expressed in Xenopus laevis oocytes.
The electrical current through the BK channel is measured using conventional two-electrode voltage clamp. BK currents are activated by repeating ramp protocols. In brief, the membrane potential is continuously changed from −120 mV to +120 mV within 2 s. The threshold for BK activation is approximately +30 mV under control conditions. Compounds are applied for 100 s during which the ramp protocol is repeated 10 times with 10 s intervals. In between the ramp protocols the membrane potential is clamped at −80 mV. […]
In order to evaluate the ability of the compounds to shift the BK activation curve towards lower membrane potentials, the BK current was transformed into conductance by using Ohm's law g=I/(Ememb−Erev), where g is the conductance, I is the current, Ememb is the membrane potential and Erev is the reversal potential. […] The control conductance level at a membrane potential of +100 mV was calculated, and the compound effect was evaluated as the potential difference, ΔV, to the membrane potential at which the same conductance level was obtained in the presence of compound. […]

O=C(CC(=O)c1cc(C(F)(F)F)cc(C(F)(F)F)c1)Nc1ccc(-c2ccc(OC(F)(F)F)cc2)cc1-c1nnn[nH]1 [Compound 3, 3-(3,5-Bis-trifluoromethyl-phenyl)-3-oxo-N-[3-(1H-tetrazol-5-yl)-4′-trifluoromethoxy-biphenyl-4-yl]-propionamide]
Kd (chloride channel): 0.21 µM

O=C(CC(=O)c1ccc(Cl)c(C(F)(F)F)c1)Nc1cc(Cl)ccc1-c1nnn[nH]1 [Compound 4, N-[5-Chloro-2-(1H-tetrazol-5-yl)-phenyl]-3-(4-chloro-3-trifluoromethyl-phenyl)-3-oxo-propionamide]
ΔVmax (maximal left shift of the BK activation curve) (BK channels; fitted to sigmoidal logistic equation): −123 mV | EC50 (BK channels; ΔV vs. control conductance at +100 mV, read-out: EC50 for the left-shift of the BKCa-activation curve): 1.8 µM
